≈ marks a conversion by molar mass, not a printed value. Where two headings read alike, the source gives them in different places. Non-standard residues stand in square brackets, D forms with d. Residues, ends and D or L forms follow the SMILES beside them. Nspe = C[C@H](NCC(=O)O)c1ccccc1; Nphe = O=C(O)CNCc1ccccc1; Nlys = NCCCCNCC(=O)O
Legend:
E. coli strain ATCC25922 = format: cell-based; conditions: for MBC E. coli: ATCC25922; for MIC E. coli: ATCC25922, 18 h
Procedure: (§1) In order to measure antimicrobial activity of the peptoids, Gram-positive S. aureus strain KCTC1621, or Gram-negative E. coli strain ATCC25922 was treated with the peptoids prepared in Preparation Example 1, and minimum inhibitory concentrations were measured. Peptoid NOS. 1 and 2 are already known peptoids and were used for the purpose of making a comparison with novel peptoids in terms of antimicrobial activity.
(§2) Specifically, S. aureus strain KCTC1621 or E. coli strain ATCC25922 was inoculated into Mueller Hinton Broth (MHB2) liquid medium on which cations were adjusted, cultured at a temperature of 37° C. for 18 hours, and then subcultured for 4 hours. Thereafter, the strains were diluted with MHB2 liquid medium containing 0.2% bovine serum albumin and 0.01% acetic acid so that each bacterial number was 2×10^5 colony-forming units (CFU) per 1 mL, and dispensed into 96-well microtiter plates at 100 μL each. A peptoid stock which is 40-fold more concentrated than a concentration to be tested was added to each well at 2.5 μL or lower so that the peptoid stock was 2-fold serially diluted using sterile water. Thereafter, the plates were incubated at a temperature of 37° C. for 18 hours.
(§3) Thereafter, absorbance was measured at a wavelength of 600 nm using a microplate reader (Bio-Rad). The lowest peptoid concentration that completely suppresses growth of microorganisms was measured by a minimum inhibitory concentration (MIC) and a minimum bactericidal concentration (MBC), and the measurement results are shown in Table 5 below. Each of the MIC values was calculated as an average value of numerical values obtained through three independent experiments.

[1] = test system: S. aureus strain KCTC1621; format: cell-based; conditions: for MBC S. aureus: KCTC1621; for MIC S. aureus: KCTC1621, 18 h
Procedure: as §1, §2, §3

red blood cells = assay: Hemolytic activity on red blood cells; format: cell-based, mouse
Procedure: In order to identify, through red blood cell hemolytic activity in mice, whether the peptoids synthesized in Preparation Example 1 are cytotoxic, red blood cells isolated from 10 mL of mouse blood were washed three times with phosphate-buffered saline (PBS, mixed solution of 35 mM phosphate buffer/150 mM NaCl, pH 7.4), and then centrifuged at a centrifugal force of 1,000 ×g for 10 minutes. A 10% (v/v) red blood cell solution diluted with PBS was dispensed into a 96-well microtiter plate at 150 μL each, and then a peptide solution was added at 50 μL each. Thereafter, the 96-well microtiter plate was incubated at a temperature of 37° C. for 1 hour.
The incubated 96-well microtiter plate was centrifuged at a centrifugal force of 1,000×g for 5 minutes. Thereafter, supernatant was taken at 100 μL each and transferred to a new 96-well microtiter plate. Then, absorbance at a wavelength of 540 nm was measured (Table 6).
In this case, a value obtained in a case of being treated with 0.1% (v/v) Triton X-100 was set as 100% hemolysis, and hemolytic activity (degree of cell destruction) of the peptoids was calculated using the following Equation 1. In the Equation 1, A is absorbance of the peptoid solution at a wavelength of 540 nm, B is absorbance of 0.1% Triton X-100 at a wavelength of 540 nm, and C is absorbance of the PBS solution at a wavelength of 540 nm. In this case, Peptoid NO. […] Degree of cell destruction (% hemolysis)=(A−C)/(B−C)[…] [Equation 1]
In Table 6, HD10 means a peptoid concentration which causes 10% hemolysis of red blood cells, and HD50 means a peptoid concentration which causes 50% hemolysis of red blood cells. In addition, Hmax is a hemolysis rate (%) at 200 μM which is the highest peptoid concentration used in the experiment.
Hemolytic activity of Peptoid NOS. 1, 18 to 23, and the peptide Pexiganan was measured in the same manner as in Experimental Example 2.

E. coli (63103 ESBL) = assay: MIC in multidrug-resistant bacteria panel, modified microdilution; format: cell-based; conditions: overnight, 37° C.
Procedure: (§4) Minimum inhibitory concentrations of the prepared peptoids for multidrug-resistant bacteria were measured using a modified microdilution method in Difco Mueller Hinton medium, and tests were done on a panel of bacterial pathogens which have resistance and tolerance against common antibiotics.
(§5) Briefly, a peptoid concentrate, which is 10-fold more concentrated than a final concentration, was serially diluted with a medium containing 0.2% bovine serum albumin and 0.01% acetic acid. 10 μL of the 10-fold concentrated peptoid concentrate and 90 μL of Muller Hinton medium were added to each well of a 96-well polypropylene microtitre plate. Bacteria were added to the plate so that a final concentration thereof was 2×10^5 CFU/mL, and then incubated overnight at a temperature of 37° C. The minimum inhibitory concentration was defined as a concentration at which no bacterial growth is observed.

P. aeruginosa (PA01) = assay: as above; format: cell-based; conditions: overnight, 37° C.
Procedure: as §4, §5

S. aureus (ATCC25923) = assay: as above; format: cell-based; conditions: overnight, 37° C.
Procedure: as §4, §5

[2] = test system: S. epidermidis (ET-024 MRSA); assay: as above; format: cell-based; conditions: overnight, 37° C.
Procedure: as §4, §5

E. coli = assay: Selectivity analysis, HD10 divided by MIC for E. coli; conditions: HD10 of Table 6 divided by MIC for E. coli ATCC25922
Procedure: In order to identify changes in selectivity depending on alteration of degree of folding in helical structure of peptoids, selectivity of each peptoid was calculated using the resultant values measured in the Experimental Examples 1 and 2. The selectivity was obtained by dividing the HD10 value by the minimum inhibitory concentration for E. coli (Table 8).

B. subtilis = format: cell-based; conditions: 18 h
Procedure: (§6) In order to measure antimicrobial activity of the peptoids, Gram-positive B. subtilis or Gram-negative E. coli strain DH5α was treated with Peptoid NOS. 1, 18 to 23, and the peptide Pexiganan, and minimum inhibitory concentrations were measured. Peptoid NOS. 1 and 2, and the peptide Pexiganan are already known antimicrobial peptoids and peptides, and were used for the purpose of making a comparison with novel peptoids in terms of antimicrobial activity.
(§7) Specifically, B. subtilis or E. coli DHS a was inoculated into LB liquid medium, and cultured at a temperature of 37° C. for 18 hours. Thereafter, the bacteria were diluted with LB medium so that each bacterial number was 2×10^5 colony-forming units (CFU) per 1 mL, and dispensed into 96-well microtiter plates at 100 μL each. The peptoid, which is 2-fold serially diluted using sterile water, was added to each well at 100 μL each. The plates were incubated at a temperature of 37° C. for 18 hours.
as §3, with “(MIC),” for “(MIC) and a minimum bactericidal concentration (MBC),”, “12” for “5”, “minimum inhibitory concentration” for “MIC”

E. coli strain DH5α = assay: Antimicrobial activity of peptoids with altered cationic residues, MIC; format: cell-based; conditions: LB medium, 18 h
Procedure: as §6, §7
as §3, with “(MIC),” for “(MIC) and a minimum bactericidal concentration (MBC),”, “12” for “5”, “minimum inhibitory concentration” for “MIC”

in vitro = format: cell-based
Procedure: In order to determine whether the peptoids were cytotoxic against human cell lines, […] cell line (Korean Cell Line Bank) which is a human lung cell line was cultured in a DMEM (Dulbecco's modified Eagle's medium) culture solution containing 10% (v/v) fetal bovine serum (FBS) at 5% CO2 and a temperature of 37° C. 100 μL of DMEM medium was dispensed into each well of a 96-well microtiter plate so that the number of cells was 1.3×10^4, and then incubated overnight at a temperature of 37° C. in a 5% CO2 incubator. In this case, a DMEM medium was used as a negative control. Thereafter, the peptoid which is 2-fold serially diluted using sterile water was added to each well, and then incubated for 24 hours.
After incubation, 20 μL of an MTS solution [3-(4,5-dimethylthiazol-2-yl)-5-(3-carboxymethoxyphenyl)-2-(4-sulfophenyl)-2H-tetrazolium, inner salt; MTS] was added thereto and incubated at a temperature of 37° C. for 4 hours. Thereafter, % survival was calculated by measuring absorbance at a wavelength of 490 nm using an ELISA reader. The % survival was calculated as a percentage obtained by dividing the absorbance value for a well-treated with the peptoid by the absorbance value for a well containing control cells which had not been treated with the peptoid.

SMILES	MBC E. coli (E. coli strain ATCC25922) [µM]	MIC E. coli (E. coli strain ATCC25922) [µM]	MBC S. aureus [1] [µM]	MIC S. aureus [1] [µM]	HD10 (red blood cells)	HD50 (red blood cells)	minimum inhibitory concentration E. coli (63103 ESBL) (E. coli (63103 ESBL))	minimum inhibitory concentration P. aeruginosa (PA01) (P. aeruginosa (PA01))	minimum inhibitory concentration S. aureus (ATCC25923) (S. aureus (ATCC25923))	minimum inhibitory concentration S. epidermidis (ET-024 MRSA) [2]	Selectivity [HD10/MIC (E. coli)] (E. coli)	MIC B. subtilis (B. subtilis) [µM]	MIC E. coli (E. coli strain DH5α) [µM]	CC50 at 24 h (in vitro; human) [µM]	CC50 at 24 h (in vitro; concentration indicating 50% survival, 24 h, MTS, read-out: LC50) [µM]
C[C@@H](c1ccccc1)N(CC(N)=O)C(=O)CN(C(=O)CN(CCCCN)C(=O)CN(Cc1ccccc1)C(=O)CN(Cc1ccccc1)C(=O)CN(CCCCN)C(=O)CN(Cc1ccccc1)C(=O)CN(Cc1ccccc1)C(=O)CN(CCCCN)C(=O)CN(C(=O)CN(C(=O)CNCCCCN)[C@@H](C)c1ccccc1)[C@@H](C)c1ccccc1)[C@@H](C)c1ccccc1 [compound 11]	25 (≈ 44.1 µg/mL)	12.5 (≈ 22 µg/mL)	6.3 (≈ 11.1 µg/mL)	3.1 (≈ 5.47 µg/mL)	61.6	> 200	6.3	6.3	3.1	<0.8 to 0.8	4.9				
C[C@@H](c1ccccc1)N(CC(N)=O)C(=O)CN(C(=O)CN(CCCCN)C(=O)CN(C(=O)CN(C(=O)CN(CCCCN)C(=O)CN(C(=O)CN(C(=O)CNCCCCN)[C@@H](C)c1ccccc1)[C@@H](C)c1ccccc1)[C@@H](C)c1ccccc1)[C@@H](C)c1ccccc1)[C@@H](C)c1ccccc1 [compound 18] (H-[Nlys][Nspe][Nspe][Nlys][Nspe][Nspe][Nlys][Nspe][Nspe]-NH2)												1.6 (≈ 2.19 µg/mL)	3.1 (≈ 4.24 µg/mL)	40	
C[C@@H](c1ccc(F)cc1)N(CC(N)=O)C(=O)CN(C(=O)CN(CCCCN)C(=O)CN(C(=O)CN(C(=O)CN(CCCCN)C(=O)CN(C(=O)CN(C(=O)CN(CCCCN)C(=O)CN(C(=O)CN(C(=O)CNCCCCN)[C@@H](C)c1ccc(F)cc1)[C@@H](C)c1ccc(F)cc1)[C@@H](C)c1ccc(F)cc1)[C@@H](C)c1ccc(F)cc1)[C@@H](C)c1ccc(F)cc1)[C@@H](C)c1ccc(F)cc1)[C@@H](C)c1ccc(F)cc1 [compound 21]					<6.25/<6.25	<6.25/<6.25						0.4 (≈ 0.785 µg/mL)		9.5	
NCCCCNCC(=O)N(CC(=O)N(CC(=O)N(CCCCN)CC(=O)N(CC(=O)N(CC(=O)N(CCCCN)CC(=O)N(CC(=O)N(CC(=O)N(CCCCN)CC(=O)N(CC(=O)N(CC(N)=O)Cc1ccccc1)Cc1ccccc1)Cc1ccccc1)Cc1ccccc1)Cc1ccccc1)Cc1ccccc1)Cc1ccccc1)Cc1ccccc1 [compound 2] (H-[Nlys][Nphe][Nphe][Nlys][Nphe][Nphe][Nlys][Nphe][Nphe][Nlys][Nphe][Nphe]-NH2)	>25	25 (≈ 42.7 µg/mL)	6.3 (≈ 10.8 µg/mL)	3.1 (≈ 5.29 µg/mL)		>200/>200	12.5	6.3		<0.8 to 0.8	>8.0				
C[C@@H](c1ccccc1)N(CC(=O)N(CCCCN)CC(=O)N(CC(=O)N(CC(=O)N(CCCCN)CC(=O)N(CC(=O)N(CC(=O)N(CCCCN)CC(N)=O)[C@@H](C)c1ccccc1)[C@@H](C)c1ccccc1)[C@@H](C)c1ccccc1)[C@@H](C)c1ccccc1)C(=O)CN(C(=O)CNCCCCN)[C@@H](C)c1ccccc1 [compound 23] (H-[Nlys][Nspe][Nspe][Nlys][Nspe][Nspe][Nlys][Nspe][Nspe][Nlys]-NH2)												0.8 (≈ 1.2 µg/mL)	1.6 (≈ 2.4 µg/mL)	80.5	
C[C@@H](c1ccccc1)N(CC(=O)N(CCCCN)CC(=O)N(CC(=O)N(CC(=O)N(CCCCN)CC(=O)N(CC(=O)N(CC(=O)N(CCCCN)CC(=O)N(CC(=O)N(CC(=O)N(CCCCN)CC(N)=O)[C@@H](C)c1ccccc1)[C@@H](C)c1ccccc1)[C@@H](C)c1ccccc1)[C@@H](C)c1ccccc1)[C@@H](C)c1ccccc1)[C@@H](C)c1ccccc1)C(=O)CN(C(=O)CNCCCCN)[C@@H](C)c1ccccc1 [compound 22] (H-[Nlys][Nspe][Nspe][Nlys][Nspe][Nspe][Nlys][Nspe][Nspe][Nlys][Nspe][Nspe][Nlys]-NH2)					19.5							0.4 (≈ 0.779 µg/mL)			10
C[C@@H](c1ccccc1)N(CC(=O)N(CCCCN)CC(=O)N(CC(=O)N(CC(=O)N(CCCCN)CC(=O)N(CC(=O)N(CC(=O)N(CCCCN)CC(=O)N(CC(=O)N(CC(N)=O)Cc1ccccc1)Cc1ccccc1)Cc1ccccc1)Cc1ccccc1)Cc1ccccc1)Cc1ccccc1)C(=O)CN(C(=O)CNCCCCN)[C@@H](C)c1ccccc1 [compound 17] (H-[Nlys][Nspe][Nspe][Nlys][Nphe][Nphe][Nlys][Nphe][Nphe][Nlys][Nphe][Nphe]-NH2)	25 (≈ 43.4 µg/mL)	25 (≈ 43.4 µg/mL)	3.1 (≈ 5.38 µg/mL)	3.1 (≈ 5.38 µg/mL)		> 200		6.3		<0.8 to 0.8	4.8				
